Experiment [1] deals with T1, PmGH (Persephonella marina, UniProt C0QQ26, C41A/C197A).
T1 construct: gene PERMA_0986; GAF + HD-GYP domains; synthetic gene in pET47b, E. coli BL21(DE3); N-terminal His6 tag cut with HRV 3C; homodimer; tri-iron centre
As to the kind of experiment: X-ray crystal structure (crystal soak), […] A. In kind it is binding. The settings on record: crystals soaked with 30 mM GMP; tri-iron centre intact; active site, phosphate bridges M and H iron sites; monomer B only.

Experiment [2] concerns the target GAF/HD-GYP protein from Persephonella marina EX-H1 (PmGH) (Persephonella marina EX-H1) (UniProt C0QQ26). As to the kind of experiment: crystal structure; hanging drop vapour diffusion, 0.1 M MES pH 6.5, 0.9 M succinic acid, 2% PEG 2000; space group I222 with one dimer in the asymmetric unit; native structure at 2.03 Å.
Experiment [3] deals with T1, PmGH. Put plainly: X-ray crystal structure (crystal soak), […] A; hydrolysis in solution shown by HPLC. The experiment is classed as binding. As to conditions: crystals soaked with 25 mM c-di-GMP and 100 mM EDTA; only G-site Fe bound; bound to monomer B only, HD-GYP active site.
Experiment [4] addresses T2, PmGH (Persephonella marina, UniProt C0QQ26, C41A/E185A/C197A).
T2 construct: gene PERMA_0986; GAF + HD-GYP domains; synthetic gene in pET47b, E. coli BL21(DE3); N-terminal His6 tag cut with HRV 3C; homodimer; tri-iron centre
Put plainly: HPLC phosphodiesterase assay. As to conditions: 100 uM c-di-GMP, pH 7.6, 10 mM MgCl2, 10 mM MnCl2, 0.5 mM EDTA, 37 C. The experiment is classed as biochemical.

Experiment [5] has as its target T3, PmGH (Persephonella marina, UniProt C0QQ26, C41A/C197A/D305A).
T3 construct: gene PERMA_0986; GAF + HD-GYP domains; synthetic gene in pET47b, E. coli BL21(DE3); N-terminal His6 tag cut with HRV 3C; homodimer; tri-iron centre
As to the kind of experiment: HPLC phosphodiesterase assay. The settings on record: 100 uM c-di-GMP, pH 7.6, 10 mM MgCl2, 10 mM MnCl2, 0.5 mM EDTA, 37 C. The experiment is classed as biochemical.

This note sets out measurements from paper PMC4159591, “Crystal structure of an HD‐GYP domain cyclic‐di‐GMP phosphodiesterase reveals an enzyme with a novel trinuclear catalytic iron centre” (Molecular Microbiology, 2013).

The term stoichiometry N denotes the number of molecules, sites or subunits per partner or assembly.

T1 sequence (C0QQ26 entry or part of it C41A/C197A): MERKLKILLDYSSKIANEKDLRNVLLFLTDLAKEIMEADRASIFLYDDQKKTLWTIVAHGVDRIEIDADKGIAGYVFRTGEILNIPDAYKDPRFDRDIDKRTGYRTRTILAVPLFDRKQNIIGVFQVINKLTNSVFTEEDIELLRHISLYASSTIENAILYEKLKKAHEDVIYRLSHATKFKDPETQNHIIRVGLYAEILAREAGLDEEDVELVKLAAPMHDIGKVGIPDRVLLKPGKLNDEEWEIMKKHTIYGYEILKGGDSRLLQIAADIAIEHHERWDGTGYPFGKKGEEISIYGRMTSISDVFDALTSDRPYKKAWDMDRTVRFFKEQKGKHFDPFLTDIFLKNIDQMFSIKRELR
T2 sequence (C0QQ26 entry or part of it C41A/E185A/C197A): as the sequence (C0QQ26 entry or part of it C41A/C197A) above, with E185A counted along it
T3 sequence (C0QQ26 entry or part of it C41A/C197A/D305A): as the sequence (C0QQ26 entry or part of it C41A/C197A) above, with D305A counted along it

On to `Nc1nc2c(ncn2[C@@H]2O[C@H](COP(=O)(O)O)[C@@H](O)[C@H]2O)c(=O)[nH]1` [GMP], for which the “X-ray crystal structure (crystal soak), 2.55 A” value in experiment [1] was “Crystal soaks with GMP and c‐di‐GMP gave identical structures of PmGH in complex with GMP”.
For “GAF/HD-GYP protein from Persephonella marina EX-H1 (PmGH) (from UniProt C0QQ26 2-363) (enzyme)”, the stoichiometry N in experiment [2] worked out at 2.
With `Nc1nc2c(ncn2[C@@H]2O[C@@H]3COP(=O)(O)O[C@H]4[C@@H](O)[C@H](n5cnc6c(=O)[nH]c(N)nc65)O[C@@H]4COP(=O)(O)O[C@H]3[C@H]2O)c(=O)[nH]1` [c-di-GMP], the “X-ray crystal structure (crystal soak), 2.68 A; hydrolysis in solution shown by” value in experiment [3] is “revealed well defined difference electron density for a bound c‐di‐GMP molecule at the active site”. For the same compound, the c-di-GMP hydrolysis entry in experiment [4] is “marked reduction in their ability to hydrolyse c‐di‐GMP, hydrolysis of c‐di‐GMP is still detected”; in experiment [5], “marked reduction in their ability to hydrolyse c‐di‐GMP, hydrolysis of c‐di‐GMP is still detected”.
